# Experimental data reported in patent US8729113B2 (Hoffmann-La Roche Inc., priority 2008, dated 2014).
# Molecular target: TAAR1 (Mus musculus (Mouse), UniProt Q923Y8)
# Assay: Radioligand binding assay on TAAR1 (membranes of stably transfected HEK293 cells)
# Details: competition with [3H]-rac-2-(1,2,3,4-tetrahydro-1-naphthyl)-2-imidazoline, 4° C., 30 min
# Procedure: For the construction of expression plasmids the coding sequences of human, rat and mouse TAAR 1 were amplified from genomic DNA essentially as described by Lindemann et al.. The Expand High Fidelity PCR System (Roche Diagnostics) was used with 1.5 mM Mg^2+ and purified PCR products were cloned into pCR2.1—TOPO cloning vector (Invitrogen) following the instructions of the manufacturer. PCR products were subcloned into the pIRESneo2 vector (BD Clontech, Palo Alto, Calif.), and expression vectors were sequence verified before introduction in cell lines.
# HEK293 cells (ATCC # CRL-1573) were cultured essentially as described Lindemann et al. (2005). For the generation of stably transfected cell lines HEK293 cells were transfected with the pIRESneo2 expression plasmids containing the TAAR coding sequences (described above) with Lipofectamine 2000 (Invitrogen) according to the instructions of the manufacturer, and 24 hrs post transfection the culture medium was supplemented with 1 mg/ml G418 (Sigma, Buchs, Switzerland). After a culture period of about 10 d clones were isolated, expanded and tested for responsiveness to trace amines (all compounds purchased from Sigma) with the cAMP Biotrak Enzyme immunoassay (EIA) System (Amersham) following the non-acetylation EIA procedure provided by the manufacturer. […] Membrane Preparation and Radioligand Binding
# Cells at confluence were rinsed with ice-cold phosphate buffered saline without Ca^2+ and Mg^2+ containing 10 mM EDTA and pelleted by centrifugation at 1000 rpm for 5 min at 4° C. The pellet was then washed twice with ice-cold phosphate buffered saline and cell pellet was frozen immediately by immersion in liquid nitrogen and stored until use at −80° C. Cell pellet was then suspended in 20 ml HEPES-NaOH (20 mM), pH 7.4 containing 10 mM EDTA, and homogenized with a Polytron (PT 3000, Kinematica) at 10,000 rpm for 10 s. The homogenate was centrifuged at 48,000×g for 30 min at 4° C. and the pellet resuspended in 20 ml HEPES-NaOH (20 mM), pH 7.4 containing 0.1 mM EDTA (buffer A), and homogenized with a Polytron at 10,000 rpm for 10 s. The homogenate was then centrifuged at 48,000×g for 30 min at 4° C. and the pellet resuspended in 20 ml buffer A, and homogenized with a Polytron at 10,000 rpm for 10 s. Protein concentration was determined by the method of Pierce (Rockford, Ill.). The homogenate was then centrifuged at 48,000×g for 10 min at 4° C., resuspended in HEPES-NaOH (20 mM), pH 7.0 including MgCl2 (10 mM) and […] homogenized with a Polytron at 10,000 rpm for 10 s.
# Binding assay was performed at 4° C. in a final volume of 1 ml, and with an incubation time of 30 min. The radioligand [^3H]-rac-2-(1,2,3,4-tetrahydro-1-naphthyl)-2-imidazoline was used at a concentration equal to the calculated Kd value of 60 nM to give a bound at around 0.1% of the total added radioligand concentration, and a specific binding which represented approximately 70-80% of the total binding. Non-specific binding was defined as the amount of [^3H]-rac-2-(1,2,3,4-tetrahydro-1-naphthyl)-2-imidazoline bound in the presence of the appropriate unlabelled ligand (10 μM). Competing ligands were tested in a wide range of concentrations […]. […] Each experiment was performed in duplicate. All incubations were terminated by rapid filtration through UniFilter-96 plates (Packard Instrument Company) and glass filter GF/C, pre-soaked for at least 2 h in polyethylenimine 0.3%, and using a Filtermate 96 Cell Harvester (Packard Instrument Company). The tubes and filters were then washed 3 times with 1 ml aliquots of cold buffer B. Filters were not dried and soaked in Ultima gold (45 μl/well, Packard Instrument Company) and bound radioactivity was counted by a TopCount Microplate Scintillation Counter (Packard Instrument Company).
# Chain of TAAR1 (Q923Y8 whole entry): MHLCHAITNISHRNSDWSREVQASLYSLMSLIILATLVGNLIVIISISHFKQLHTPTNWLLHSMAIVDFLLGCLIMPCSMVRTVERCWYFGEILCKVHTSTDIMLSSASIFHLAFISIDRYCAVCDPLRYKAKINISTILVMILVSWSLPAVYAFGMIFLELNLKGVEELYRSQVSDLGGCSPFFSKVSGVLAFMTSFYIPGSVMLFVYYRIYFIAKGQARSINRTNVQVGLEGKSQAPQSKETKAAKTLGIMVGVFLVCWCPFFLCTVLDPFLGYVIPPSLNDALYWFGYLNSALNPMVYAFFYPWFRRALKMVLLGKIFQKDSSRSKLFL
row,Ki [µM],Structure (SMILES)
1,0.0001,"NC1=N[C@@H](CCOc2cccc(Br)c2)CO1 [Example 35, (S)-4-[2-(3-Bromo-phenoxy)-ethyl]-4,5-dihydro-oxazol-2-ylamine]"
2,0.004,"C[C@@H](C[C@H]1COC(N)=N1)Oc1ccc(F)cc1F [Example 74, (S)-4-[(S)-2-(2,4-Difluoro-phenoxy)-propyl]-4,5-dihydro-oxazol-2-ylamine]"
3,0.0065,"CC[C@@H](C[C@H]1COC(N)=N1)Oc1ccc(Cl)cc1F [Example 123, (S)-4-[(S)-2-(4-Chloro-2-fluoro-phenoxy)-butyl]-4,5-dihydro-oxazol-2-ylamine]"
4,0.0004,"NC1=N[C@@H](CCC2(c3ccc(Cl)cc3)CC2)CO1 [Example 30, (S)-4-{2-[1-(4-Chloro-phenyl)-cyclopropyl]-ethyl}-4,5-dihydro-oxazol-2-ylamine]"
5,0.0017,"CC[C@@H](C[C@H]1COC(N)=N1)Oc1ccc(F)c(F)c1 [Example 119, (S)-4-[(S)-2-(3,4-Difluoro-phenoxy)-butyl]-4,5-dihydro-oxazol-2-ylamine]"
6,0.008,"C[C@@H](C[C@H]1COC(N)=N1)Oc1ccc(F)c(F)c1 [Example 69, (S)-4-[(S)-2-(3,4-Difluoro-phenoxy)-propyl]-4,5-dihydro-oxazol-2-ylamine]"
7,0.0022,"NC1=N[C@@H](CCC(F)(F)c2ccc(F)cc2)CO1 [Example 162, (S)-4-[3,3-Difluoro-3-(4-fluoro-phenyl)-propyl]-4,5-dihydro-oxazol-2-ylamine]"
8,0.0039,"NC1=N[C@@H](CCOc2ccc(Oc3ccccc3)cc2)CO1 [Example 36, (S)-4-[2-(4-Phenoxy-phenoxy)-ethyl]-4,5-dihydro-oxazol-2-ylamine]"
9,0.0073,"CC[C@H](OC[C@H]1COC(N)=N1)c1ccccc1 [Example 156, (S)-4-((S)-1-Phenyl-propoxymethyl)-4,5-dihydro-oxazol-2-ylamine]"
10,0.0048,"NC1=N[C@@H](CCOc2ccc(C(F)(F)F)cc2)CO1 [Example 88, (S)-4-[2-(4-Trifluoromethyl-phenoxy)-ethyl]-4,5-dihydro-oxazol-2-ylamine]"
11,0.0021,"C[C@@H](C[C@H]1COC(N)=N1)Oc1ccc(Cl)cc1F [Example 73, (S)-4-[(S)-2-(4-Chloro-2-fluoro-phenoxy)-propyl]-4,5-dihydro-oxazol-2-ylamine]"
12,0.001,"CCC(CC[C@H]1COC(N)=N1)c1cc(F)cc(F)c1 (stereo partly drawn) [Example 124, (4S)-4-[3-(3,5-Difluoro-phenyl)-pentyl]-4,5-dihydro-oxazol-2-ylamine]"
13,0.0041,"NC1=N[C@@H](CCOc2ccc(Cl)cc2F)CO1 [Example 58, (S)-4-[2-(4-Chloro-2-fluoro-phenoxy)-ethyl]-4,5-dihydro-oxazol-2-ylamine]"
14,0.001,"CC[C@@H](C[C@H]1COC(N)=N1)Oc1ccc(Cl)cc1 [Example 107, (S)-4-[(S)-2-(4-Chloro-phenoxy)-butyl]-4,5-dihydro-oxazol-2-ylamine]"
15,0.0086,"C[C@@H](C[C@H]1COC(N)=N1)Oc1ccc(Oc2ccccc2)cc1 [Example 79, (S)-4-[(S)-2-(4-Phenoxy-phenoxy)-propyl]-4,5-dihydro-oxazol-2-ylamine]"
16,0.0015,"NC1=N[C@@H](CCCCc2ccccc2)CO1 [Example 172, (S)-4-(4-Phenyl-butyl)-4,5-dihydro-oxazol-2-ylamine]"
17,0.0076,"COc1ccc(OCC[C@H]2COC(N)=N2)cc1 [Example 59, (S)-4-[2-(4-Methoxy-phenoxy)-ethyl]-4,5-dihydro-oxazol-2-ylamine]"
18,0.0016,"NC1=N[C@@H](CCOc2ccc(-c3ccc(F)cc3)cc2)CO1 [Example 48, (S)-4-[2-(4′-Fluoro-biphenyl-4-yloxy)-ethyl]-4,5-dihydro-oxazol-2-ylamine]"
19,0.0012,"CC(CC[C@H]1COC(N)=N1)c1ccc(F)cc1 (stereo partly drawn) [Example 17, (4S)-4-[3-(4-Fluoro-phenyl)-butyl]-4,5-dihydro-oxazol-2-ylamine]"
20,0.0031,"C[C@@H](CC[C@H]1COC(N)=N1)c1ccc(F)cc1 [Example 115, (S)-4-[(S)-3-(4-Fluoro-phenyl)-butyl]-4,5-dihydro-oxazol-2-ylamine]"
21,0.0032,"C[C@H](OC[C@H]1COC(N)=N1)c1ccc(F)cc1 [Example 155, (S)-4-[(S)-1-(4-Fluoro-phenyl)-ethoxymethyl]-4,5-dihydro-oxazol-2-ylamine]"
22,0.0021,"NC1=N[C@@H](CCOc2ccc(F)cc2Cl)CO1 [Example 10, (S)-4-[2-(2-Chloro-4-fluoro-phenoxy)-ethyl]-4,5-dihydro-oxazol-2-ylamine]"
23,0.0016,"CC[C@@H](C[C@H]1COC(N)=N1)Oc1ccccc1 [Example 109, (S)-4-((S)-2-Phenoxy-butyl)-4,5-dihydro-oxazol-2-ylamine]"
24,0.0024,"C[C@@H](C[C@H]1COC(N)=N1)Oc1ccc(F)c(Cl)c1 [Example 72, (S)-4-[(S)-2-(3-Chloro-4-fluoro-phenoxy)-propyl]-4,5-dihydro-oxazol-2-ylamine]"
25,0.0028,"NC1=N[C@@H](CCOc2ccc(F)cc2)CO1 [Example 2, (S)-4-[2-(4-Fluoro-phenoxy)-ethyl]-4,5-dihydro-oxazol-2-ylamine]"
26,0.0073,"CC(CC[C@H]1COC(N)=N1)c1ccccc1 (stereo partly drawn) [Example 13, (4S)-4-(3-Phenyl-butyl)-4,5-dihydro-oxazol-2-ylamine]"
27,0.0009,"CC[C@@H](C[C@H]1COC(N)=N1)Oc1cccc(OCc2ccccc2)c1 [Example 140, (S)-4-[(S)-2-(3-Benzyloxy-phenoxy)-butyl]-4,5-dihydro-oxazol-2-ylamine]"

row,Structure (SMILES),Ki [µM]
1,"NC1=N[C@@H](CCOc2ccc(Cl)c(F)c2)CO1 [Example 54, (S)-4-[2-(4-Chloro-3-fluoro-phenoxy)-ethyl]-4,5-dihydro-oxazol-2-ylamine]",0.0014
2,"CC[C@@H](C[C@H]1COC(N)=N1)Oc1ccc(Cl)cc1Cl [Example 158, (S)-4-[(S)-2-(2,4-Dichloro-phenoxy)-butyl]-4,5-dihydro-oxazol-2-ylamine]",0.0011
3,"CC(C)(CC[C@H]1COC(N)=N1)c1ccccc1 [Example 7, (S)-4-(3-Methyl-3-phenyl-butyl)-4,5-dihydro-oxazol-2-ylamine]",0.0032
4,"NC1=N[C@@H](CC2CC2c2ccccc2)CO1 (stereo partly drawn) [Example 23, (4S)-4-(2-Phenyl-cyclopropylmethyl)-4,5-dihydro-oxazol-2-ylamine]",0.0031
5,"CC[C@@H](C[C@H]1COC(N)=N1)Oc1ccc(F)cc1F [Example 114, (S)-4-[(S)-2-(2,4-Difluoro-phenoxy)-butyl]-4,5-dihydro-oxazol-2-ylamine]",0.0019
6,"NC1=N[C@@H](CCC2(c3ccc(F)c(F)c3)CC2)CO1 [Example 108, (S)-4-{2-[1-(3,4-Difluoro-phenyl)-cyclopropyl]-ethyl}-4,5-dihydro-oxazol-2-ylamine]",0.0014
7,"C[C@@H](C[C@H]1COC(N)=N1)Oc1ccc(Cl)c(Cl)c1 [Example 75, (S)-4-[(S)-2-(3,4-Dichloro-phenoxy)-propyl]-4,5-dihydro-oxazol-2-ylamine]",0.001
8,"CC(C)(CC[C@H]1COC(N)=N1)c1ccc(F)cc1 [Example 25, (S)-4-[3-(4-Fluoro-phenyl)-3-methyl-butyl]-4,5-dihydro-oxazol-2-ylamine]",0.003
9,"CC[C@@H](C[C@H]1COC(N)=N1)Oc1ccc(Br)cc1 [Example 111, (S)-4-[(S)-2-(4-Bromo-phenoxy)-butyl]-4,5-dihydro-oxazol-2-ylamine]",0.001
